Experimental data: patent US6706663B2, “Herbicidal 3-heterocyclic substituted benzisothiazole and benzisoxazole compounds” (Wyeth, priority 2000, dated 2004)

Key:
[1] = tested on: ORYSAT (Rice, Tebonnet); test: Flooded paddy, post-transplant rice tolerance; format: in vivo, Oryza sativa, (L.) Tebonnet; conditions: flooded paddy, post-transplant rice, rated 3-4 weeks after treatment, 0-9 rating scale
How it was run: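 Two ten-day-old seedlings were transplanted into silt loam, flooded and held at 1.5 to 3 cm water above the soil before herbicide treatment. Pots stayed in the greenhouse at that water level. Injury was scored visually on a 0-9 scale versus untreated control.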

[2] = tested on: ABUTH (Abutilon theophrasti); test: Preemergence herbicidal evaluation; format: in vivo, Medic.; conditions: rated 4-5 weeks after treatment
[3] = tested on: SETVI (Setaria viridis); test: Postemergence herbicidal evaluation; format: in vivo, (L.) Beau; conditions: postemergence
How it was run: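 Seedlings about two weeks old were sprayed with compound in 50/50 acetone/water plus 0.5% TWEEN 20, at the equivalent of about 0.0040 to 1.000 kg/ha. Plants were kept in a greenhouse and visually rated 0-9 against a control four to five weeks after treatment. Repeat tests were averaged.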

[4] = tested on: GLXMAW (Soybean, Williams); test: Preemergence herbicidal evaluation; format: in vivo, Glycine max, (L.) Merr. cv Williams; conditions: rated 4-5 weeks after treatment
[5] = tested on: SAGPY (Sagittaria pygmaea); test: Flooded paddy, preemergence weed control; format: in vivo, L.; conditions: rated 3-4 weeks after treatment, 0-9 rating scale
How it was run: (§1)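 Preemergence, flooded: propagules planted at 0.5 cm depth in silt loam, water level maintained at 1.5 to 3 cm over soil, containers kept on greenhouse benches. Activity scored 0-9 by eye relative to a control plant.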

[6] = tested on: IPOHE (Ipomoea hederacea); test: Preemergence herbicidal evaluation; format: in vivo, (L.) Jacq.; conditions: rated 4-5 weeks after treatment
[7] = tested on: MOOVA (Monochoria vaginalis); test: Flooded paddy, preemergence weed control; format: in vivo, Presl.; conditions: rated 3-4 weeks after treatment, 0-9 rating scale
How it was run: as §1

[8] = tested on: CYPIR (Cyperus iria); test: Flooded paddy, preemergence weed control; format: in vivo; conditions: rated 3-4 weeks after treatment, 0-9 rating scale
How it was run: as §1

[9] = tested on: ZEAMX (Corn, Field); test: Preemergence herbicidal evaluation; format: in vivo, Zea mays, L.; conditions: rated 4-5 weeks after treatment
[10] = tested on: TRZAWR (Wheat, Winter, cv Riband); test: Postemergence herbicidal evaluation; format: in vivo, Triticum aestivum; conditions: postemergence
How it was run: (§2)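 Seedlings grown about two weeks in flats, sprayed, then kept under standard greenhouse care. Rated visually 4–5 weeks after treatment on a 0–9 scale (stand, vigour, malformation, size, chlorosis, overall appearance) relative to untreated control; repeat tests averaged.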

[11] = tested on: CASOB (Cassia obtusifolia); test: Preemergence herbicidal evaluation; format: in vivo, L.; conditions: rated 4-5 weeks after treatment
How it was run: (§3)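 Scores (0–9) reflect visual comparison with control plants for stand, vigor, malformation, size and chlorosis. Seeds in potting soil received a post-planting spray of compound in aqueous acetone and grew in a greenhouse until assessment 4–5 weeks later.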

[12] = tested on: CHEAL (Chenopodium album); test: Preemergence herbicidal evaluation; format: in vivo, L.; conditions: rated 4-5 weeks after treatment
How it was run: as §3

[13] = tested on: AMBEL (Ambrosia artemisifolia); test: Preemergence herbicidal evaluation; format: in vivo, L.; conditions: rated 4-5 weeks after treatment
How it was run: as §3

[14] = tested on: ECHCG (Echinochloa crus-galli); test: Postemergence herbicidal evaluation; format: in vivo, (L.) Beau; conditions: postemergence
How it was run: as §2

[15] = tested on: ECHORC (Echinochloa oryzoides); test: Flooded paddy, preemergence weed control; format: in vivo, Echinochloa oryzoides (Ard.) Fritsch.; conditions: rated 3-4 weeks after treatment, 0-9 rating scale
How it was run: as §1

Cn1c(C(F)(F)F)cc(=O)n(-c2ccc3snc(C4OC(=O)C(C)(C)O4)c3c2)c1=O (stereo not drawn) [Compound 71, 3-[3-(4,4-dimethyl-5-oxo-1,3-dioxolan-2-yl)-1,2-benzisothiazol-5-yl]-1-methyl-6-(trifluoromethyl)uracil]
herbicidal rating, ORYSAT (rice tolerance) ([1]; rate 0.0080 kg/ha): 0.0 | herbicidal rating, ORYSAT (rice tolerance) ([1]; rate 0.0320 kg/ha): 0.0 | herbicidal rating, ORYSAT (rice tolerance) ([1]; rate 0.1250 kg/ha): 0.0 | Preemergence herbicidal rating ABUTH ([2]; Rate 0.0620 kg/ha): 8.0 | Preemergence herbicidal rating ABUTH ([2]; Rate 0.1250 kg/ha): 9.0 | Preemergence herbicidal rating ABUTH ([2]; Rate 0.2500 kg/ha): 9.0 | SETVI herbicidal rating ([3]; rate 0.0320 kg/ha): 2.0 | SETVI herbicidal rating ([3]; rate 0.0620 kg/ha): 7.0 | Preemergence herbicidal rating GLXMAW ([4]; Rate 0.0620 kg/ha): 2.5 | Preemergence herbicidal rating GLXMAW ([4]; Rate 0.1250 kg/ha): 4.5 | Preemergence herbicidal rating GLXMAW ([4]; Rate 0.2500 kg/ha): 6.0 | herbicidal rating, SAGPY ([5]; rate 0.0080 kg/ha): 0.0 | herbicidal rating, SAGPY ([5]; rate 0.0320 kg/ha): 0.0 | herbicidal rating, SAGPY ([5]; rate 0.1250 kg/ha): 0.0 | Preemergence herbicidal rating IPOHE ([6]; Rate 0.0620 kg/ha): 7.0 | Preemergence herbicidal rating IPOHE ([6]; Rate 0.1250 kg/ha): 9.0 | Preemergence herbicidal rating IPOHE ([6]; Rate 0.2500 kg/ha): 9.0 | herbicidal rating, MOOVA ([7]; rate 0.0080 kg/ha): 0.0 | herbicidal rating, MOOVA ([7]; rate 0.0320 kg/ha): 0.0 | herbicidal rating, MOOVA ([7]; rate 0.1250 kg/ha): 0.0 | herbicidal rating, CYPIR ([8]; rate 0.0080 kg/ha): 0.0 | herbicidal rating, CYPIR ([8]; rate 0.0320 kg/ha): 0.0 | herbicidal rating, CYPIR ([8]; rate 0.1250 kg/ha): 0.0 | Preemergence herbicidal rating ZEAMX ([9]; Rate 0.0620 kg/ha): 5.5 | Preemergence herbicidal rating ZEAMX ([9]; Rate 0.1250 kg/ha): 8.0 | Preemergence herbicidal rating ZEAMX ([9]; Rate 0.2500 kg/ha): 8.5 | TRZAWR herbicidal rating ([10]; rate 0.0320 kg/ha): 3.0 | TRZAWR herbicidal rating ([10]; rate 0.0620 kg/ha): 3.5 | Preemergence herbicidal rating CASOB ([11]; Rate 0.0620 kg/ha): 3.5 | Preemergence herbicidal rating CASOB ([11]; Rate 0.1250 kg/ha): 6.5 | Preemergence herbicidal rating CASOB ([11]; Rate 0.2500 kg/ha): 7.5 | Preemergence herbicidal rating CHEAL ([12]; Rate 0.0620 kg/ha): 9.0 | Preemergence herbicidal rating CHEAL ([12]; Rate 0.1250 kg/ha): 9.0 | Preemergence herbicidal rating CHEAL ([12]; Rate 0.2500 kg/ha): 9.0 | Preemergence herbicidal rating AMBEL ([13]; Rate 0.0620 kg/ha): 8.0 | Preemergence herbicidal rating AMBEL ([13]; Rate 0.1250 kg/ha): 9.0 | Preemergence herbicidal rating AMBEL ([13]; Rate 0.2500 kg/ha): 9.0 | ECHCG herbicidal rating ([14]; rate 0.0320 kg/ha): 1.0 | ECHCG herbicidal rating ([14]; rate 0.0620 kg/ha): 3.0 | herbicidal rating, ECHORC ([15]; rate 0.0080 kg/ha): 0.0 | herbicidal rating, ECHORC ([15]; rate 0.0320 kg/ha): 0.0 | herbicidal rating, ECHORC ([15]; rate 0.1250 kg/ha): 0.0
